# Where two headings read alike, the source gives them in different places.
# What was measured:
# [1] = biological target: T1, ERBB2 (Homo sapiens, UniProt P04626); experiment: KINOMEScan KdELECT Kd determination; format: binding; details: read-out: Kinase Kd
# T1 construct: purchased Eurofins DiscoverX (contract assay)
# Description: In vitro kinase activity (inhibitor binding constants (Kd) and biochemical inhibition (IC50’s)) were assessed by Eurofins DiscoverX (Kd determinations) and Eurofins Cerep (biochemical IC50 determinations).
# [2] = system: TA100; parameters: species or system Salmonella;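 as to Count (# of wells): Revertant-positive wells among 48 replicate wells per concentration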
# Description: (§1) Compounds were assessed for mutagenicity at the Eurofins Panlabs in 384-well plates using four Salmonella strains: TA98, to probe for frameshift mutation (with quercetin as control), TA100 and TA1535, to probe for base pair insertions/deletions (with streptozotocin as control), and TA1537, to probe for frameshift mutations (with aminacridine as control) as previously described.[78] […] A concurrent bacterial cytotoxicity assay was run at 0.6, 1.2, 2.5, 5, 10, 25, 50, and 100 μM to rule out false negatives. Bacterial cytotoxicity was expressed as percent of control growth (OD650). Compounds with growth of less than 60% control were flagged and considered bacterial cytotoxic. […] Significances of the positive counts between the treatment and control were determined using a one-tailed Fisher’s exact test.
# [3] = system: TA1537; parameters: species or system Salmonella;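 as to Count (# of wells): Revertant-positive wells among 48 replicate wells per concentration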
# Description: as §1
# [4] = system: TA98; parameters: species or system Salmonella;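 as to Count (# of wells): Revertant-positive wells among 48 replicate wells per concentration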
# Description: as §1
# [5] = In vitro metabolite identification; format: in vitro ADME; details: human hepatocytes, 10 μM
# [6] = Oral CNS pharmacokinetic assessment; format: in vivo, Sprague-Dawley rats; details: male, Sprague-Dawley, brain, Rat 20 mg/kg (PO)
# Description: Animal experiments were performed at Pharmaron, Inc. and animal use was approved by Pharmaron’s Institutional Animal Care and Use Committee (IACUC) in Pharmaron (Pharmaron IACUC, Protocol #PK-M-07182022, #PK-R-06012022, and #ON-CELL-XEN-06012022) following the guidance of AAALAC. Six- to eight-week-old male Sprague-Dawley rats (approximately 200–300 g) obtained from Si Bei Fu Laboratory Animal Technology Co., six- to eight-week-old male CD1 mice (approximately 20–30 g) obtained from Si Bei Fu Laboratory Animal Technology Co., and six- to eight-week-old female BALB/c nude mice (approximately 20–30 g) obtained from Si Bei Fu Laboratory Animal Technology Co., were used in the pharmacokinetic studies. Six- to eight-week-old female BALB/c nude mice (approximately 18–22 g) obtained from Beijing Anikeeper Biotech Co., Ltd. were used in the intracranial PDX study. […]
# Oral CNS pharmacokinetic assessment of 9 was done by oral gavage (formulation: 1% methylcellulose) followed by blood and brain sampling at 7 time points (0.25, 0.5, 1, 2, 4, 8, 24 h post dose) with n = 3 animals per time point (n = 21 total). […] Concentrations of 9 in the plasma and brain samples were determined using LC-MS/MS and WinNonlin 8.3 (Phoenix) was used for pharmacokinetic calculations. […]
# [7] = biological target: T2, ABL1(F317I)-nonphosphorylated (Homo sapiens, UniProt P00519, F317I); experiment: KINOMEScan; format: binding; details: read-out: Percent Control
# T2 construct: purchased Eurofins DiscoverX
# T2 sequence (P00519 whole entry F317I): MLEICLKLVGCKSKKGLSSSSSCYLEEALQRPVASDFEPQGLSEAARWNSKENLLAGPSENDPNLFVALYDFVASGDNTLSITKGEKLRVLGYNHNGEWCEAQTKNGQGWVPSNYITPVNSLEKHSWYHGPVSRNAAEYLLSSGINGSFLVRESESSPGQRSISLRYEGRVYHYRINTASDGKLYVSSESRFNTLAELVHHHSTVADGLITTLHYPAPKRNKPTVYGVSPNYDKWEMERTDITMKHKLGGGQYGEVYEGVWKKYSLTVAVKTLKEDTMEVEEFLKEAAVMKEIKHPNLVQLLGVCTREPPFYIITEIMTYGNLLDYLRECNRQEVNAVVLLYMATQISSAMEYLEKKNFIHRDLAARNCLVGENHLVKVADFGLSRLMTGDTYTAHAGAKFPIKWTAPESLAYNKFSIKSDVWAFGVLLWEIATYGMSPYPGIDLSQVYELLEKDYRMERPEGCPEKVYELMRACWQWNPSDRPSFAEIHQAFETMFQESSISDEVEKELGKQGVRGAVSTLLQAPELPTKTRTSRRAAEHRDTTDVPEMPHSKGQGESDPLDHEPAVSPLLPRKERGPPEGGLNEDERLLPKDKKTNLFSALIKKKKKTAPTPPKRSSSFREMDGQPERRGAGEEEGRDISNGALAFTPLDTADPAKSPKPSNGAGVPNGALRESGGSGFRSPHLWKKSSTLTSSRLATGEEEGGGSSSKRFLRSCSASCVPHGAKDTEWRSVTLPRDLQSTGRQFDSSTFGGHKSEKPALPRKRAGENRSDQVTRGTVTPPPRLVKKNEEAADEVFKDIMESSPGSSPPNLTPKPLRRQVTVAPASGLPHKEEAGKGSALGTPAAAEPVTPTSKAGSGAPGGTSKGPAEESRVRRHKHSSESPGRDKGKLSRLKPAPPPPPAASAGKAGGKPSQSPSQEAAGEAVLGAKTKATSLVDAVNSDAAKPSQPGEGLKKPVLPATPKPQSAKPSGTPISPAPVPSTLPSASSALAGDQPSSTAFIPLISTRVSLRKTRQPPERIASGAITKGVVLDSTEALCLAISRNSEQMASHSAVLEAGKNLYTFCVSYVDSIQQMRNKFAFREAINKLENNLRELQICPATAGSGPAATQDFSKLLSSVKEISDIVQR
# Description: (§2) Percent control was mapped onto the kinome tree using TREEspot.
# [8] = biological target: T3, ABL1-phosphorylated (Homo sapiens, UniProt P00519); experiment: KINOMEScan; format: binding; details: read-out: Percent Control
# T3 construct: purchased Eurofins DiscoverX
# T3 sequence (P00519 whole entry): as the sequence (P00519 whole entry F317I) above, with I317F counted along it
# Description: as §2
# [9] = biological target: T4, AKT1 (Homo sapiens, UniProt P31749); experiment: KINOMEScan; format: binding; details: AKT1, 1 µM; read-out: Percent Control
# T4 construct: purchased Eurofins DiscoverX (KINOMEscan)
# T4 sequence (P31749 whole entry): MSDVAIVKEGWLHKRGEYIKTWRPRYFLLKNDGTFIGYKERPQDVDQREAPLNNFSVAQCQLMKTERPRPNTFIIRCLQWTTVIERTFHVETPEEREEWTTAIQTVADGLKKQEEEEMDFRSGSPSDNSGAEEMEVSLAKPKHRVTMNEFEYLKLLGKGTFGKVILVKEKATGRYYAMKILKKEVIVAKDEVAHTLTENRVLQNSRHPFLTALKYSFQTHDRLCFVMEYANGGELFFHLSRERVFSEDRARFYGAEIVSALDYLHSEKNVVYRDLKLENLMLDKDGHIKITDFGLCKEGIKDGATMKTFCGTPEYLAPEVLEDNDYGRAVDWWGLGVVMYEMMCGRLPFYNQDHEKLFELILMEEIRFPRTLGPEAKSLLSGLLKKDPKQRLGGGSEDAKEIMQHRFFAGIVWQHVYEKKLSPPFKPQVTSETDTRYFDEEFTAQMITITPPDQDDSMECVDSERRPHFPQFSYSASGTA
# Description: as §2
# [10] = biological target: T5, AURKA (Homo sapiens, UniProt O14965); experiment: KINOMEScan; format: binding; details: read-out: Percent Control
# T5 construct: purchased Eurofins DiscoverX (KINOMEscan)
# T5 sequence (O14965 whole entry): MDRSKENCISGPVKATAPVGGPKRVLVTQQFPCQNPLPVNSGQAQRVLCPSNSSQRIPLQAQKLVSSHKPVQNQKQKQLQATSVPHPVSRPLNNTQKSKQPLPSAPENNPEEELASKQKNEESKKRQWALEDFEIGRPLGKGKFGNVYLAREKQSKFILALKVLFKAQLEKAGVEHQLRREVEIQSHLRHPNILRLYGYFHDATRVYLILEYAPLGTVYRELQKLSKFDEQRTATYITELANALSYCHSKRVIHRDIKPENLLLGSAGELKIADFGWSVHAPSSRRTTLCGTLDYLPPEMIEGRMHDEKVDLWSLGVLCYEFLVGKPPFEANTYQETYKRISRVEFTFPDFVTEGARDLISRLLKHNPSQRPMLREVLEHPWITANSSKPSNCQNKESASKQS
# [11] = biological target: T6, ERBB2 (HER2) (Homo sapiens, UniProt P04626); experiment: KINOMEScan; format: binding; details: read-out: Percent Control
# T6 construct: purchased Eurofins DiscoverX (KINOMEScan service)
# T6 sequence (P04626 23-1255): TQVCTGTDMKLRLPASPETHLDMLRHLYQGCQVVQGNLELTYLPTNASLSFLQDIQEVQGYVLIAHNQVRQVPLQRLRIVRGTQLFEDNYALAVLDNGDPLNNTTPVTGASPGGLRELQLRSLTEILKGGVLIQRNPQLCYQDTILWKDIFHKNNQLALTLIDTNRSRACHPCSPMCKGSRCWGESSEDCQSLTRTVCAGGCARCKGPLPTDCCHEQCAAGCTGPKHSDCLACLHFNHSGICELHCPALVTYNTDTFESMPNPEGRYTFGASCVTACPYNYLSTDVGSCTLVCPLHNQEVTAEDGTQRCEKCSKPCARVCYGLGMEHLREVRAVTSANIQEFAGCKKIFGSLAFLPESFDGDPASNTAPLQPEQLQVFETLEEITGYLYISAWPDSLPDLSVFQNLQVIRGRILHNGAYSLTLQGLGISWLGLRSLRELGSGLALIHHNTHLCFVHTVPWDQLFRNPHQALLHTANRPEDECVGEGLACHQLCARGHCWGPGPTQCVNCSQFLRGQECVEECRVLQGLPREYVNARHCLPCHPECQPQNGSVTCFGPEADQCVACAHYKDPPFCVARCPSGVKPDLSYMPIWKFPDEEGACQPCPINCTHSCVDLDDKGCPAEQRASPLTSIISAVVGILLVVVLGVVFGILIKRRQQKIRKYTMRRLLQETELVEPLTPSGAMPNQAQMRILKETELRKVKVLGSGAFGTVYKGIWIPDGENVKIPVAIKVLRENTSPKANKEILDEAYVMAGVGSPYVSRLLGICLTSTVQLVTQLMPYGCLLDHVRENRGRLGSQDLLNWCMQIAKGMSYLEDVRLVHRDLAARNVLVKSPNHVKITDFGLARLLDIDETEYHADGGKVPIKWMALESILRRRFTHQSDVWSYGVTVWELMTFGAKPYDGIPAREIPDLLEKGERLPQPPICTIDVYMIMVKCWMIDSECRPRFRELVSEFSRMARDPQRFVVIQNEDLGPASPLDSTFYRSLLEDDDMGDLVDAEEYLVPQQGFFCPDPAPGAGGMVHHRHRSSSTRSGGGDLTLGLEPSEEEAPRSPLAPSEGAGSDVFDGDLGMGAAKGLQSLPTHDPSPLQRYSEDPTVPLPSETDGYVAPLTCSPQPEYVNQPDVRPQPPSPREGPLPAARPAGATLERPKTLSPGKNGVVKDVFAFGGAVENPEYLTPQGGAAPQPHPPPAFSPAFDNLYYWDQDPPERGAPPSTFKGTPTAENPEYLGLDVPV
# Description: as §2
# T1 sequence (P04626 23-1255): as above
structure (smiles),measurement,setting,value
"COc1cc2ncnc(Nc3cccc(Cl)c3F)c2cc1OCCON1CCN(C)CC1 [Compound 9, N-(3-Chloro-2-fluorophenyl)-7-methoxy-6-(2-((4-methylpiperazin-1-yl)oxy)ethoxy)quinazolin-4-amine]",Kd,[1],0.021 µM
same,Count (# of wells),"[2]; TA100+S9, 1.0E-04 M",0
same,Positive Significance (- to +++),"[2]; TA100+S9, 1.0E-04 M",-
same,Count (# of wells),"[2]; TA100+S9, 1.0E-05 M",3
same,Positive Significance (- to +++),"[2]; TA100+S9, 1.0E-05 M",-
same,Count (# of wells),"[2]; TA100+S9, 5.0E-05 M",0
same,Positive Significance (- to +++),"[2]; TA100+S9, 5.0E-05 M",-
same,Count (# of wells),"[2]; TA100+S9, 5.0E-06 M",3
same,Positive Significance (- to +++),"[2]; TA100+S9, 5.0E-06 M",-
same,Count (# of wells),"[2]; TA100-S9, 1.0E-04 M",0
same,Positive Significance (- to +++),"[2]; TA100-S9, 1.0E-04 M",-
same,Count (# of wells),"[2]; TA100-S9, 1.0E-05 M",4
same,Positive Significance (- to +++),"[2]; TA100-S9, 1.0E-05 M",-
same,Count (# of wells),"[2]; TA100-S9, 5.0E-05 M",0
same,Positive Significance (- to +++),"[2]; TA100-S9, 5.0E-05 M",-
same,Count (# of wells),"[2]; TA100-S9, 5.0E-06 M",1
same,Positive Significance (- to +++),"[2]; TA100-S9, 5.0E-06 M",-
same,Count (# of wells),"[3]; TA1537+S9, 1.0E-04 M",1
same,Positive Significance (- to +++),"[3]; TA1537+S9, 1.0E-04 M",-
same,Count (# of wells),"[3]; TA1537+S9, 1.0E-05 M",5
same,Positive Significance (- to +++),"[3]; TA1537+S9, 1.0E-05 M",-
same,Count (# of wells),"[3]; TA1537+S9, 5.0E-05 M",4
same,Positive Significance (- to +++),"[3]; TA1537+S9, 5.0E-05 M",-
same,Count (# of wells),"[3]; TA1537+S9, 5.0E-06 M",3
same,Positive Significance (- to +++),"[3]; TA1537+S9, 5.0E-06 M",-
same,Count (# of wells),"[3]; TA1537-S9, 1.0E-04 M",0
same,Positive Significance (- to +++),"[3]; TA1537-S9, 1.0E-04 M",-
same,Count (# of wells),"[3]; TA1537-S9, 1.0E-05 M",0
same,Positive Significance (- to +++),"[3]; TA1537-S9, 1.0E-05 M",-
same,Count (# of wells),"[3]; TA1537-S9, 5.0E-05 M",0
same,Positive Significance (- to +++),"[3]; TA1537-S9, 5.0E-05 M",-
same,Count (# of wells),"[3]; TA1537-S9, 5.0E-06 M",1
same,Positive Significance (- to +++),"[3]; TA1537-S9, 5.0E-06 M",-
same,Count (# of wells),"[4]; TA98+S9, 1.0E-04 M",0
same,Positive Significance (- to +++),"[4]; TA98+S9, 1.0E-04 M",-
same,Count (# of wells),"[4]; TA98+S9, 1.0E-05 M",2
same,Positive Significance (- to +++),"[4]; TA98+S9, 1.0E-05 M",-
same,Count (# of wells),"[4]; TA98+S9, 5.0E-05 M",1
same,Positive Significance (- to +++),"[4]; TA98+S9, 5.0E-05 M",-
same,Count (# of wells),"[4]; TA98+S9, 5.0E-06 M",0
same,Positive Significance (- to +++),"[4]; TA98+S9, 5.0E-06 M",-
same,Count (# of wells),"[4]; TA98-S9, 1.0E-04 M",0
same,Positive Significance (- to +++),"[4]; TA98-S9, 1.0E-04 M",-
same,Count (# of wells),"[4]; TA98-S9, 1.0E-05 M",0
same,Positive Significance (- to +++),"[4]; TA98-S9, 1.0E-05 M",-
same,Count (# of wells),"[4]; TA98-S9, 5.0E-05 M",2
same,Positive Significance (- to +++),"[4]; TA98-S9, 5.0E-05 M",-
same,Count (# of wells),"[4]; TA98-S9, 5.0E-06 M",0
same,Positive Significance (- to +++),"[4]; TA98-S9, 5.0E-06 M",-
same,share of parent/metabolite after incubation of 9,[5],14.20%
same,Kp at 24 h,[6]; read-out: Kp brain (AUCinf),0.95
same,Kp uu at 24 h,"[6]; read-out: Kp,uu brain (AUCinf)",0.33
same,remaining binding at 1 µM,[7],54%
same,remaining binding at 1 µM,[8],7.7%
same,remaining binding at 1 µM,[9],100%
same,remaining binding at 1 µM,[10],75%
same,remaining binding at 1 µM,[11],0.45%

# Reference: article PMC10683025, “Discovery of a Hydroxylamine-Based Brain-Penetrant EGFR Inhibitor for Metastatic Non-Small-Cell Lung Cancer” (Journal of Medicinal Chemistry, 2023)
